From patent publication US11274074B2, “Pharmaceutical composition for ANO1 antagonist with anticancer activity” (INDUSTRY-ACADEMIC COOPERATION FOUNDATION, YONSEI UNIVERSITY, priority 2018, dated 2022) come the findings set out here.

One data set concerns the target ANO1 (Homo sapiens (Human), UniProt Q5XXA6). In words: Selective inhibition of ANO1 over ANO2 (Table 1), ANO1 IC50. In kind it is cell-based.
Data set [1] has as its target T1, ANO2 (Homo sapiens (Human), UniProt Q9NQ90). In words: Selective inhibition of ANO1 over ANO2 (Table 1), ANO2 IC50. It counts as cell-based.
Data set [2] relates to PC-3 cells highly expressing ANO1. In words: MTS cell viability, PC-3 cells highly expressing ANO1. It counts as cell-based. The conditions noted are these: MTS assay, 24 hours. As for the experimental part: (§1) The cell viability was determined by the MTS assay (mean±S.E., n=4; * P<0.05, ** P<0.01, *** P<0.001).
(§2) 24 hours later, after adding 20 μL of an MTS solution to each well and culturing at 37° C. for 30 minutes under 5% CO2, absorbance was measured at 490 nm using a microplate reader.
(§3) In FIG. 2B, PC-3 cells were treated with the [Chemical Formula 5] compound at different concentrations in the same manner as in FIG. 2A. […] After adding 20 μL of an MTS solution to each well and culturing at 37° C. for 30 minutes under 5% CO2, absorbance was measured at 490 nm using a microplate reader.
A general note: Tetrazolium assays rely on reduction of a dye to a coloured formazan, in cell work by metabolically active cells.

The test system of data set [3] is PC-3 cells not expressing ANO1. Nature of the data set: MTS cell viability, PC-3 cells not expressing ANO1. In kind it is cell-based. Particulars: MTS assay, 24 hours. The procedure: as §1, §2, §3
The test system of another data set is MCF7 breast cancer cells. Nature of the data set: MTS cell viability, MCF7 breast cancer cells highly expressing ANO1. In kind it is cell-based. Particulars: MTS assay, 24 hours. As for the experimental part: (§4) The cell viability was determined by the MTS assay (mean±S.E., n=4).
as §2

For data set [4], the system named is BxPC3 pancreatic cancer cells. Nature of the data set: MTS cell viability, BxPC3 pancreatic cancer cells highly expressing ANO1. In kind it is cell-based. The conditions noted are these: MTS assay, 24 hours. As for the experimental part: as §4, §2
Data set [5] deals with ANO1 protein in PC-3 cells. In words: Western blot of ANO1 protein level in PC-3 cells expressing ANO1 at high level. In kind it is cell-based. The conditions noted are these: for decrease of the expression level of ANO1: PC-3 cells. (In general: A western blot detects proteins with antibodies after separation by electrophoresis.)
Another data set has as its target ANO1 (TMEM16A) (Homo sapiens (Human), UniProt Q5XXA6). Nature of the data set: Short-circuit current (apical membrane current) in FRT cells expressing ANO1. In kind it is cell-based. The procedure:
Specifically, Fischer rat thyroid (FRT) cells expressing ANO1 were differentiated by culturing in DMEM/Ham's F12 medium in Transwell for 5 days and then short-circuit current was measured using an Ussing chamber. Then, a regular HCO^3− solution (120 mM NaCl, 5 mM KCl, 1 mM MgCl2, 2.5 mM HEPES, 1 mM CaCl2, 10 mM glucose, 25 mM NaHCO3) was added to a basolateral bath of the Ussing chamber, and a luminal bath was stabilized for 20 minutes by creating a Cl^− gradient by maintaining at 70 mM Cl^−. Then, after treating with the [Chemical Formula 5] compound at different concentrations (0, 0.003, 0.01, 0.03, 0.1, 0.3, 1.0 μM) and carrying out reaction for 20 minutes, ATP (100 μM) was added and the inhibitory effect for Cl^− secretion was measured through ANO1 activity.

For data set [6], the target named is T1, ANO2. In words: Short-circuit current in FRT cells expressing ANO2. In kind it is cell-based.
Another data set has as its target human WT-CFTR (Homo sapiens (Human), UniProt P13569). In words: Short-circuit current in FRT cells expressing CFTR. In kind it is cell-based.
A short description of data set [7]: Stability in mouse plasma (LC-MS/MS). In kind it is in vitro ADME. Particulars: for half-life at 5 μM: mouse, 37° C.
Data set [8] has as its system smooth muscle of the mouse ileum. Nature of the data set: Contraction of smooth muscle using mouse ileal section.

T1 sequence (Q9NQ90 other isoform, or with tags, fused parts or gaps, species assumed): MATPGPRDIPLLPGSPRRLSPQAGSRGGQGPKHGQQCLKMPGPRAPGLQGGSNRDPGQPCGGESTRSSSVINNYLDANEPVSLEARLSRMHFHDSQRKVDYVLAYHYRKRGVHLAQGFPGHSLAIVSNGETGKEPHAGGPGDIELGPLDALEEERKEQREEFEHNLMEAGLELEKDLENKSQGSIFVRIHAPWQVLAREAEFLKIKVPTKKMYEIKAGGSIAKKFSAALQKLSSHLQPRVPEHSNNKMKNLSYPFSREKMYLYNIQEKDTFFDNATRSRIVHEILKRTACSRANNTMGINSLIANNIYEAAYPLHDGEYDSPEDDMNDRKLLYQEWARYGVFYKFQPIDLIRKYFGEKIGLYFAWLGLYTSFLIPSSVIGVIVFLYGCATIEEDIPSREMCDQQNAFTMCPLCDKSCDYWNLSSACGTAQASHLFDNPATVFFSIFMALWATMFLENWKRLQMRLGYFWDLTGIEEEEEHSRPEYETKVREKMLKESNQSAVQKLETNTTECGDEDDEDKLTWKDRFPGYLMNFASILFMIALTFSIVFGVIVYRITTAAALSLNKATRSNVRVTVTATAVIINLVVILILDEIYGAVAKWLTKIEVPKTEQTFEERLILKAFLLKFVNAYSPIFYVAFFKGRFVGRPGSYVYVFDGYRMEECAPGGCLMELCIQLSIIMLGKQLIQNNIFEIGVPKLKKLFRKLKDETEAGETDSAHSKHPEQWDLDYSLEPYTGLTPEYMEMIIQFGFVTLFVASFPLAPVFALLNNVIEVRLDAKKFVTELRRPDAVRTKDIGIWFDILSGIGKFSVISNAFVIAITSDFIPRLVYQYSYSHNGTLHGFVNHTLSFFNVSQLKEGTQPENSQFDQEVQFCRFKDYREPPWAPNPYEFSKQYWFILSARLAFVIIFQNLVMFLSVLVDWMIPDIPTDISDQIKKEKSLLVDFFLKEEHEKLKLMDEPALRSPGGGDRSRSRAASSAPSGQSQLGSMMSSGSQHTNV
Chain of ANO1 (Q5XXA6 whole entry, species assumed): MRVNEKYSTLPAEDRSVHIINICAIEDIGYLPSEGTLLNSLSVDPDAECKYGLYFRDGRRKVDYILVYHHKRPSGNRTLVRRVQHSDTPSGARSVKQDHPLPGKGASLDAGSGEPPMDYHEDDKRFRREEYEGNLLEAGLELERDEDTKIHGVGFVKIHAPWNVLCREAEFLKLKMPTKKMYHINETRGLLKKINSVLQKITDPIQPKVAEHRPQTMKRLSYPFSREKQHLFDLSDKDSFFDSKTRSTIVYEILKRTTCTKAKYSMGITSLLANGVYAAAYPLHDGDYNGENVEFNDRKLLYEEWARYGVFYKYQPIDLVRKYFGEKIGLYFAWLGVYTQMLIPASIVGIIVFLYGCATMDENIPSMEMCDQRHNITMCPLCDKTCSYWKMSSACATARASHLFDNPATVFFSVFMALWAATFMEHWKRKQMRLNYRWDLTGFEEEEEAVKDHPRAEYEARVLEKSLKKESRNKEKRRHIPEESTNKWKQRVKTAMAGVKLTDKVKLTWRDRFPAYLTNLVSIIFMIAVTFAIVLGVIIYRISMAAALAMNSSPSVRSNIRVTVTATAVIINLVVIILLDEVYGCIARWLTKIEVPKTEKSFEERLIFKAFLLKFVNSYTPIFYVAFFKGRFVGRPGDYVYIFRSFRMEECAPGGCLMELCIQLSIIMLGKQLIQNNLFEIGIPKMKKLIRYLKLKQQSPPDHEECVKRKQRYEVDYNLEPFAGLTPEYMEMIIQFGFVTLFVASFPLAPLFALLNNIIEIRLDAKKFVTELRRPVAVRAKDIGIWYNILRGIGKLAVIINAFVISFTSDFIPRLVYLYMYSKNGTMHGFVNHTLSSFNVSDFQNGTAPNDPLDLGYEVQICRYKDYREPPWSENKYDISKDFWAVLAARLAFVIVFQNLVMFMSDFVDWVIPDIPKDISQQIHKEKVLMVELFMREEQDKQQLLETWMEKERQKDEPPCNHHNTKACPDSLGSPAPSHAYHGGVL
Chain of ANO1 (TMEM16A) (Q5XXA6 whole entry, species assumed): as above
Chain of human WT-CFTR (P13569 whole entry): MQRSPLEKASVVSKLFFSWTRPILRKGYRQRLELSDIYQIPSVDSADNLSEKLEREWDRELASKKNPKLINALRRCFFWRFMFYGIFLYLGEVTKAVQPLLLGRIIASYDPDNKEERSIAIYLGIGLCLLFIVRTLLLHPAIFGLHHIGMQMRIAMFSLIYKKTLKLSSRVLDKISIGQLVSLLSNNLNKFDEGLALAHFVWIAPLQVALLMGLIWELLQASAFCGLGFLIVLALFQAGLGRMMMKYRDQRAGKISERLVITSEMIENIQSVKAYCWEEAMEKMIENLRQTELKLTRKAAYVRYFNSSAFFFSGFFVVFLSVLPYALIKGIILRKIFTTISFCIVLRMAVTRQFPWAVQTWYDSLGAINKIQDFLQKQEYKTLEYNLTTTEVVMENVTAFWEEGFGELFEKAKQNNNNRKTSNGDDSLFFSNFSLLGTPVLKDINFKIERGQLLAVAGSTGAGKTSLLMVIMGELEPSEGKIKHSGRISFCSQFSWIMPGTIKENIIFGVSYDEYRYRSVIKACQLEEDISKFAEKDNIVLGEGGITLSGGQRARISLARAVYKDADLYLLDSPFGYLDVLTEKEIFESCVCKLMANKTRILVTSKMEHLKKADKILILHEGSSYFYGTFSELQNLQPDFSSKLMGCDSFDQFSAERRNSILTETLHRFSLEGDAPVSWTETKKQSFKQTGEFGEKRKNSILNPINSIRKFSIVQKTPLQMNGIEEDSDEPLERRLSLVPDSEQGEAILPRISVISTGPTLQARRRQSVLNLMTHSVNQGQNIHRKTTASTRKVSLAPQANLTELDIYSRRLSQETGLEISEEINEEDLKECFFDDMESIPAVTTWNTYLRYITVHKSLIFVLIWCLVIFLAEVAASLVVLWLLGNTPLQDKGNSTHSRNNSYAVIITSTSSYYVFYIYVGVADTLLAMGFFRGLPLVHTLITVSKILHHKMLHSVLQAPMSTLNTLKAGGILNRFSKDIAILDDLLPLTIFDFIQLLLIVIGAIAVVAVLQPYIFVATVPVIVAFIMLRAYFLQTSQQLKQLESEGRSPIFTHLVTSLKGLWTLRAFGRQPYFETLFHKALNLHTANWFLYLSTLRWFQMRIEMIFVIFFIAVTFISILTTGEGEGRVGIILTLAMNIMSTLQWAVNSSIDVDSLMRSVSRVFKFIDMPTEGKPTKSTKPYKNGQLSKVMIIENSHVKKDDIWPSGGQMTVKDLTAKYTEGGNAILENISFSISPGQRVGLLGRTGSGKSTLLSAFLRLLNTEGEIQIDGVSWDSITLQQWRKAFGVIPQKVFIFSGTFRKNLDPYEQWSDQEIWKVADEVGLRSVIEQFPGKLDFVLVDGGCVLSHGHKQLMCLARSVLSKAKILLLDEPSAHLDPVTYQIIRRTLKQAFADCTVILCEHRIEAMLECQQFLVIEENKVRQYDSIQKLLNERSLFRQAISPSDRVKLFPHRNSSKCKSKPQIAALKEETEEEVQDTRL

`Cc1cc(Cl)ccc1OCc1nnc(-c2ccccc2F)o1` [Example 4]: the concentration for half-maximal inhibition (IC50) – broadly, the concentration at which inhibition is half-maximal – at ANO1 is 21.2 ± 0.17 µM; against ANO2 [1], over 100 µM.
As to `Cc1cc(Cl)ccc1OCc1nnc(-c2cccc(F)c2)o1` [Comparative Example 6], the IC50 against ANO1 and at ANO2 [1] was over 100 µM in each case.
For `COc1cccc(CNC(=O)COc2ccc(Cl)cc2C)c1` [Example 12], the IC50 is 53.7 ± 0.05 µM on ANO1 and over 100 µM on ANO2 [1].
Turning to `Cc1cc(Cl)ccc1OCC(=O)N/N=C/c1cccc(OC(F)(F)F)c1` [Comparative Example 9], at ANO1, the “ANO1 inhibitory activity (in words)” value was “not to inhibit ANO1” and the IC50 is over 100 µM. In data set [2], the “effect on cell viability of PC-3 cells highly expressing ANO1” value is on record as “insignificant effect”. For the same compound, the “effect on cell viability of PC3 cells not expressing ANO1” value in data set [3] is given as “insignificant effect”. Besides, in the data set on MCF7 breast cancer cells, the “effect on cell viability of MCF7 breast cancer cells highly expressing ANO1” value is given as “insignificant effect”. Besides, the “effect on cell viability of BxPC3 pancreatic cancer cells highly expressing ANO1” value in [4] is on record as “insignificant effect”.
Turning to `COc1ccccc1CNC(=O)COc1ccc(Cl)cc1C` [Example 11], the IC50 against ANO1 is 20.6 ± 0.02 µM; on ANO2 [1] it was 13.1 ± 0.07 µM.
`Cc1cc(Cl)ccc1OCC(=O)N/N=C1\CCOc2ccccc21` [Comparative Example 14] gave an IC50 against ANO1 of over 100 µM.
`Cc1cc(Cl)ccc1OCC(=O)N/N=C/c1ccccn1` [Example 10]: the IC50 against ANO1 was 31.3 ± 0.57 µM; at ANO2 [1] it was over 100 µM.
On ANO1, `Cc1cc(Cl)ccc1OCC(=O)N/N=C/c1ccccc1C(F)(F)F` [Example 5] came in with an IC50 of 0.21 ± 0.04 µM.
In turn, `Cc1cc(Cl)ccc1OCC(=O)Nc1nc2cc(Cl)ccc2o1` [Example 13] returned an IC50 against ANO1 of 14.2 ± 0.07 µM. In data set [5] (10 μM), the “reduction of ANO1 expression level as compared to Ani9” value (“reduction of ANO1 expression level” for short) was about 2.05 times and the “decrease of the expression level of ANO1” value was 48.8±2.9%.
Regarding `Cc1cc(Cl)ccc1OCc1nnc(-c2ccccc2C(F)(F)F)o1` [Comparative Example 7], the IC50 against ANO1 and on ANO2 [1] was over 100 µM in each case.
On ANO1, `Cc1cc(Cl)ccc1OCC(=O)N/N=C/c1cccc(F)c1` [Comparative Example 5] showed an IC50 of over 100 µM.
With `Cc1cc(Cl)ccc1OCC(=O)N/N=C/c1ccccc1OC(F)(F)F` [Example 1], at ANO1, the “ANO1 inhibitory activity (in words)” value is “strongest ANO1 inhibitory activity” and it took 0.021 ± 0.005 µM to reach half-maximal inhibition (IC50). Further, the “inhibition of ANO1 activity as compared to Ani9” value at ANO1 (TMEM16A) was at least 4 times. It took 0.022 µM to reach half-maximal inhibition on ANO1 (TMEM16A) (FRT cells expressing ANO1, short-circuit current, ATP 100 μM) (IC50). For the same compound, at 100 µM the inhibition against ANO2 [6] was 17.1%. Also, on human WT-CFTR (100 μM, forskolin-activated CFTR), the “inhibition of the activity of CFTR” value is “did not inhibit”. Besides, in data set [2], the “effect on cell viability of PC-3 cells highly expressing ANO1” value is “selectively inhibited the growth of the PC-3 cells highly expressing ANO1 in a concentration-dependent manner”. Also, in [7], the plasma stability result is on record as “higher stability in the mouse plasma than Ani9” and the half-life (commonly the time needed for the level to fall by half in the phase considered) at 5 μM turned out to be 1.73 h. Also, in [5] (3 μM), the “reduction of ANO1 expression level” value is “about 11.5 times” and the “decrease of the expression level of ANO1” value worked out at 59.8±4.6%. In [5] (10 μM), the “reduction of ANO1 expression level” value is reported as about 2.28 times and the “decrease of the expression level of ANO1” value is reported as 66.5±4.7%. Moreover, the “effect on cell viability of MCF7 breast cancer cells highly expressing ANO1” value with MCF7 breast cancer cells is “selectively inhibited the growth”. Moreover, the “effect on cell viability of BxPC3 pancreatic cancer cells highly expressing ANO1” value in data set [4] was “selectively inhibited the growth”. In addition, in data set [8], the “contraction frequency of smooth muscle” value is given as “no effect” and the “contraction of smooth muscle of the mouse ileum” value was “strongly inhibited”. For the same compound, the “decrease of maximum contraction intensity of smooth muscle” value in data set [8] (300 nM) worked out at 53.3%. The “decrease of maximum contraction intensity of smooth muscle” value in [8] (1 μM) amounted to 68.8%.
In turn, `COc1cccc(/C=N/NC(=O)COc2ccc(Cl)cc2C)c1` [Comparative Example 3] displayed an IC50 against ANO1 of over 100 µM.
Same read-out and setting: for `Cc1cc(Cl)ccc1OCC(=O)N/N=C/c1ccco1` [Example 8] the value was 25.7 ± 0.01 µM; for `Cc1cc(Cl)ccc1OCC(=O)N/N=C1/C(=O)N(C)c2ccccc21` [Comparative Example 13], over 100 µM.
As for `COc1ccccc1/C=N/NC(=O)COc1ccc(Cl)cc1C` [Ani9, reference compound], in data set [7], the plasma stability result was “low” and the half-life at 5 μM amounted to 0.533 h.
In the case of `COc1cccc(-c2nnc(COc3ccc(Cl)cc3C)o2)c1` [Comparative Example 4], the IC50 against ANO1 and against ANO2 [1] was over 100 µM throughout.
Regarding `Cc1cc(Cl)ccc1OCC(=O)Nc1nc2ccccc2s1` [Comparative Example 15], the IC50 against ANO1 and at ANO2 [1] was over 100 µM in each case.
For `COc1ccccc1-c1nnc(COc2ccc(Cl)cc2C)o1` [Example 3], the values for the IC50 against ANO1 and at ANO2 [1] were 19.4 ± 0.01 µM and 12.4 ± 0.05 µM, respectively.
As for `Cc1cc(Cl)ccc1OCc1nnc(-c2cccc(OC(F)(F)F)c2)o1` [Comparative Example 10], the half-maximal inhibitory concentration (IC50) against ANO1 is over 100 µM.
Consider `CCOC(=O)c1cc2ccccn2c1/C=N/NC(=O)COc1ccc(Cl)cc1C` [Comparative Example 12], for which the IC50 at ANO1 and at ANO2 [1] was over 100 µM each time.
As for `COc1ccccc1/C=N/NC(=O)c1cc2cc(Cl)ccc2o1` [Comparative Example 1], the half-maximal inhibitory concentration (IC50) against ANO1 and against ANO2 [1] was over 100 µM each time.
With `Cc1cc(Cl)ccc1OCc1nnc(-c2ccco2)o1` [Example 9], the IC50 on ANO1 was 63.8 ± 0.02 µM; against ANO2 [1] it was over 100 µM.
On the same counts, the results for `CCOC(=O)c1csc(NC(=O)COc2ccc(Cl)cc2C)n1` [Example 14] are 14.8 ± 0.01 µM and over 100 µM.
`Cc1cc(Cl)ccc1OC(C)(C)C(=O)N/N=C/c1ccccc1OC(F)(F)F` [Comparative Example 18] gave an IC50 against ANO2 [1] of over 100 µM.
With CFTRinh-172 [reference compound], the “inhibition of CFTR” value against human WT-CFTR (10 μM) is given as “completely inhibited”.
Turning to `COc1ccccc1CNNC(=O)COc1ccc(Cl)cc1C` [Example 2], the IC50 was 10.7 ± 0.14 µM against ANO1 and over 100 µM on ANO2 [1].
In the case of `COC(=O)c1sc(NC(=O)COc2ccc(Cl)cc2C)nc1C` [Comparative Example 16], the half-inhibitory concentration (IC50) against ANO1 was over 100 µM.
`Cc1cc(Cl)ccc1OCc1nnc(-c2ccccn2)o1` [Comparative Example 11]: the IC50 on ANO1 was over 100 µM.
As to `C/C(=N\NC(=O)COc1ccc(Cl)cc1C)c1ccccc1OC(F)(F)F` [Example 6], on ANO1, the “ANO1 inhibitory activity (in words)” value is listed as “slightly weaker inhibitory activity than the compound of Example 1” and 0.3 ± 0.02 µM corresponded to half-maximal inhibition (IC50). Further, the IC50 against ANO2 [1] is over 100 µM. Also, in data set [5] (10 μM), the “reduction of ANO1 expression level” value was “about 1.21 times” and the “decrease of the expression level of ANO1” value amounted to 28.9±0.9%.
In the case of `Cc1cc(Cl)ccc1OC(F)(F)C(=O)N/N=C/c1ccccc1OC(F)(F)F` [Comparative Example 19], the IC50 on ANO1 and against ANO2 [1] was over 100 µM each time.
Compound `Cc1cc(Cl)ccc1OC(C)C(=O)N/N=C/c1ccccc1OC(F)(F)F` (stereo not shown) [Comparative Example 17] had an IC50 against ANO1 of over 100 µM.
With `Cc1cc(Cl)ccc1OCc1nnc(-c2ccccc2OC(F)(F)F)o1` [Comparative Example 8], the IC50 on ANO1 was over 100 µM.
Turning to `CCOC(=O)C(F)Oc1ccccc1/C=N/NC(=O)COc1ccc(Cl)cc1C` (stereo not shown) [Example 7], the IC50 at ANO1 came to 15.7 ± 0.01 µM; at ANO2 [1] it was 59.4 ± 0.45 µM.
Turning to `COc1ccccc1-c1nnc(-c2cc3cc(Cl)ccc3o2)o1` [Comparative Example 2], the IC50 against ANO1 and against ANO2 [1] was over 100 µM each time.
